Laboratory results published in US20120213789A1, “New Molecular Target for Treatment of Cancer” (priority 2001, published 2012).

How the values were obtained:
[1] = Percent viability by Trypan blue dye exclusion after SPB treatment; format: cell-based; details: prostate cell lines, treated cells, SPB 0.5-25.0 mM, untreated cells about 85%
Experimental: (§1) Cells were grown to 70-80% confluence at 37° C. and 5% CO2 in T-75 tissue culture plastic flasks. SPB stock solution was added to final concentrations of 0.5, 5.0, 10.0, and 25.0 mM in appropriate fresh media to the cell cultures. Cells were incubated at 37° C. and 5% CO2 for 72 hours. Attached cells were then harvested using a solution of 0.05% trypsin and 0.53 mM EDTA (Invitrogen Corp.). Attached cells were then pooled with any the detached cells and washed with PBS pH 7.2. Cell numbers and percent viability were determined using Trypan blue dye exclusion and a hemacytometer. At the time of their use in an experiment the viability was usually about 85% for untreated cells and a range of about 15-70% for treated cells, with the lower viabilities found at higher SPB concentrations (Thompson C, 1995; Cory et al., 1998; van Engeland et al., 1996).

[2] = system: C4-2B Metastatic Prostate Cell Line; experiment: UROC28/Bcl-2 label flow cytometry after SPB treatment; format: cell-based, human; details: for Total Bcl-2 / Total UC2BC: section UROC28/Bcl-2
Experimental: as §1
(§2) UC28(C) is 2.14 mg/ml rabbit polyclonal aliquot directed against the inventors' UC28 patented biomarker developed by UCor R&D gene discovery program. The Antibody was produced against a twenty amino acid (AA) synthetic peptide from the predicted AA sequence (AA 21-37) UCor, Inc. 840 Research Parkway Oklahoma City, Okla. 73104.
(§3) Goat Anti-Rabbit CY5 polyclonal Fluorchrome was used as the secondary conjugate for UC28 C rabbit polyclonal antibody and a background control for UC28 C polyclonal. Vendor is Jackson ImmunoResearch Laboratories, Inc. 872 West Baltimore Pike, P.O. Box 9 West Grove, Pa. 19390.
Bc12 IgG1 kappa-FITC isomer 1 is a purified monoclonal mouse specific for Bc1-2 protein. Vendor is Dalco Corporation 6392 Via Real, Carpinteria, Calif. 93013 USA.
MsIgG1 kappa-FITC isomer 1 is a purified isotype specific control for Bc1-2 monoclonal antibody. Vendor is Dako Corporation 6392 Via Real, Carpinteria, Calif. 93013 USA.
Cytofix/Cytoperm™ ICit enables fixation and permeabilization of cells prior to staining with fluorochrome-conjugated antibodies. Vendor is BD-PharMingen, 10975 Torreyana Road, San Diego, Calif. 92121-1106.
(§4) A Coulter Elite engineered with a triple laser system was used to analyze all samples. Coulter control beads were used to align lasers for the dual label testing of cell samples. Laser alignment was required for both the Argon (488 nm line) laser and HeNe (633 nm line) laser. These alignments were performed prior to all measurements with the Argon laser (488 nm line) using fluorophores for FITC, RPE, PI and the HeNe laser (633 nm line) for the Cy5 fluorophores being used for the experiments described below. The histographs, voltage settings, gates, color compensation, and pressures were established prior to all sample processing.
(a) Tissue culture cells (MLC-SV40, LNCaP and C 4-2B) were aliquoted at concentration of 1×10^6 per teach 12×75 mm polystyrene tube. Label tubes as follows: • (i) No Antibody • (ii) Secondary GAR-CY5 polyclonal=(control for UC28 CIDGARCY5 polyclonal) vs MsIgG1-RPE (control for FAS-RPE monoclonal) • (iii) UC28 C-IDGARCY5 polyclonal vs FAS (CD45)—RPE monoclonal • (iv) SecondaryGAR-CY5 polyclonal=(control for UC28 C-IDGARCY5 polyclonal) vs MsIgG1-FITC (control for Bc12-FITC monoclonal) • (v) UC28 C-IDGARCY5 polyclonal vs Bc12-FITC monoclonal • (vi) UC28 C-IDGARCY5 Polyclonal=(single label for checking instrument after setting Coulter Elite flow cytometer for dual analysis using the three different fluorchromes.) • (vii) FAS ([…])—RPE monoclonal=(single label for checking instrument after setting Coulter Elite flow cytometer for dual analysis using the three different fluorchromes.) • (viii) Bc12-FITC monoclonal=(single label for checking instrument after setting Coulter Elite flow cytometer for dual analysis using the three different fluorchromes.)
(c) A volume of 100 μl of UC28 C rabbit polyclonal unconjugated antibody was added to the appropriately labeled tubes. All other tubes received 100 μl PBS (pH7.3) and all tubes were incubated at room temp in the dark for 1 hour. […]

[3] = system: C4-2B Metastatic Prostate Cell Line; experiment: UROC28/Fas label flow cytometry after SPB treatment; format: cell-based, human; details: for Total Fas / Total UC2BC: section UROC28/Fas
Experimental: as §1, §2, §3
CD45 (FAS) IgG1 kappa—(R-phycoerythrin (RPE) is purified monoclonal antibody conjugated with R-phycoerythrin (RPE) that is specific for the FAS protein. Vendor is Dalco Corporation 6392 Via Real, Carpinteria, Calif. 93013 USA MsIgG1 IgG1 kappa R-phycoerythrin (RPE) conjugated goat anti-mouse immunoglobulins is used for (FAS) antibody negative control. Vendor is Dako Corporation 6392 Via Real, Carpinteria, Calif. 93013 USA.
as §4
(a) Tissue culture cells (MLC-SV40, LNCaP and C 4-2B) were aliquoted at concentration of 1×10^6 per teach 12×75 mm polystyrene tube. […]

[4] = system: C4-2B metastatic cell line; experiment: Secretion of soluble tPSA and fPSA under SPB treatment; format: cell-based, human; details: culture supernatants
Experimental: as §1, with “1996). […] The data confirms the biological differences in these three cell lines and provides a stronger basis upon which to assess the behavior of the UC28 gene under the same SPB treatment conditions. For both of these experiments, supernatants were collected from the same experiments as in Example 1; cells were collected and assayed for apoptosis as well as for UC28 antigen expression using antibodies to SEQ ID NO:4.” for “1996).”

In the case of `O=C([O-])CCCc1ccccc1.[Na+]` [SPB, 4-Phenylbutyric Acid, Sodium Salt], the viability at 72 h [1] is reported as 15 to 70%, the “Total Bcl-2” value ([2]; 5.0 mM SPB) is reported as 5.4% and the “Total UC2BC” value ([2]; 5.0 mM SPB) is reported as 96.0%. The “Total Bcl-2” value ([2]; 10 mM SPB) was 0.3%, the “Total UC2BC” value ([2]; 10 mM SPB) was 93.9% and the Bc1-2 protein expression ([2]; SPB, summary of Table 7) was “markedly depressed”. The UC28 expression ([2]; SPB, summary of Table 7) was “significantly up regulated”, the “Total Fas” value ([3]; 5.0 mM SPB) was 3.6% and the “Total UC2BC” value ([3]; 5.0 mM SPB) was 96.4%. The “Total Fas” value ([3]; 10 mM SPB) was 6.1%, the “Total UC2BC” value ([3]; 10 mM SPB) was 94.0% and the Fas protein expression ([3]; SPB, summary of Table 7) was “markedly depressed”. The fPSA production [4] was “down-regulated” and the tPSA production [4] was “down-regulated”.
